Experimental data taken from US20080045592A1, “Method of inhibiting growth and proliferation of listeria monocytogenes using levulinate” (Utah State University, priority 2006, published 2008).
Where two headings read alike, the source gives them in different places.

Columns and labels:
[1] = system: 5 strain cocktail of L. monocytogenes; conditions: for inhibition of growth of L. monocytogenes, compared with sodium lactate alone or sodium lactate combined with sodium diacetate: 2° C., comparators at 2%; for growth of L. monocytogenes: entire 12 weeks of storage at 2° C.
[2] = system: 5 strain cocktail of L. monocytogenes; conditions: for inhibiting growth of L. monocytogenes, compared with sodium lactate alone or sodium lactate combined with sodium diacetate: 2° C., comparators at 2%; for growth of L. monocytogenes: entire 12 weeks of storage at 2° C.
[3] = system: cocktail of 5 pathogenic strains of L. monocytogenes; conditions: bologna slices surface contacted with 1 to 3% solutions, stored at 4° C. for 16 weeks
From the text: This experiment tests the residual anti-Listeria activity imparted by topical application of levulinate to ready-to-eat meat product. In this experiment, levulinic acid is topically applied to a ready-to-eat meat product, and residual anti-Listeria activity followed in a post-treatment challenge. Briefly, bologna slices are surface contacted (spray, wash, or dips) with solutions of 1 to 3% levulinic […] acid. The slices are inoculated with a cocktail of 5 pathogenic strains of L. monocytogenes. Samples are vacuum packaged and stored at 4° C. for 16 weeks. Pathogen counts are determined at 0, 2, 4, 8, 12 and 16 weeks.

[4] = system: pathogenic bacteria (including, but not limited to, Listeria monocytogene); conditions: addition or application to any food, stored at 4 to 8° C. for up to 16 weeks
Experimental: Pathogen counts are determined at 0, 2, 4, 8, 12, and 16 weeks.

[5] = system: pathogenic bacteria (including, but not limited to Listeria monocytogenes); conditions: 2% applied at 54° C. to carcass tissues, stored 4 to 8° C. for 16 weeks
Experimental: This experiment tests the extent of residual anti-pathogenic activity of levulinic acid (2%) topically applied to carcasses by dipping, spraying, or washing as compared to lactic acid (2%) or acetic acid (2%). Briefly, levulinic acid, lactic acid and acetic acid are independently applied at 54° C. to samples of carcass tissues from beef, pork, lamb, and poultry (or any other species) by topical application. Samples are inoculated with pathogenic bacteria (including, but not limited to Listeria monocytogenes), vacuum packaged, and stored (4 to 8° C.) for 16 weeks. Pathogen counts are determined at 0, 2, 4, 8, 12, and 16 weeks.

[6] = system: pathogenic bacteria (including, but not limited to, Listeria monocytogenes); conditions: 0.5, 1.0, 2.0% applied at temperatures greater than 54° C. (68, 77° C.); comparators 2% at 54° C.
Experimental: Samples are vacuum packaged and stored at 4° C. for 12 hours, and pathogen counts are determined.

[7] = system: pathogenic bacteria including, but not limited to, Listeria monocytogenes; conditions: 2% applied at 54° C. to carcass tissue, stored at 4° C. for 12 hours
Experimental: This experiment tests the extent of decontamination achieved by topical application of levulinic acid to carcass meats as compared to lactic and acetic acids. Briefly, carcass tissues samples from beef, pork, lamb, and poultry (or any other species) are inoculated with pathogenic bacteria including, but not limited to, Listeria monocytogenes. Levulinic acid (2%), lactic acid (2%), and acetic acid (2%) are independently applied at 54° C. to individual meat samples by washing, dipping, or spraying. Samples are vacuum packaged and stored at 4° C. for 12 hours, and pathogen counts are determined.

Structure (SMILES): CC(=O)CCC(=O)[O-].[Na+] [sodium levulinate]
- inhibition of growth of L. monocytogenes, compared with sodium lactate alone or sodium lactate combined with sodium diacetate ([1]; 1% in bologna): as inhibitory
- growth of L. monocytogenes ([1]; 1% in bologna): completely inhibited growth
- inhibition of growth of L. monocytogenes, compared with sodium lactate alone or sodium lactate combined with sodium diacetate ([1]; 2% in bologna): as inhibitory
- growth of L. monocytogenes ([1]; 2% in bologna): completely inhibited growth
- inhibition of growth of L. monocytogenes, compared with sodium lactate alone or sodium lactate combined with sodium diacetate ([1]; 3% in bologna): as inhibitory
- growth of L. monocytogenes ([1]; 3% in bologna): completely inhibited growth
- inhibiting growth of L. monocytogenes, compared with sodium lactate alone or sodium lactate combined with sodium diacetate ([2]; 2% in turkey product): more effective
- growth of L. monocytogenes ([2]; 2% in turkey product): completely inhibited growth
- inhibiting growth of L. monocytogenes, compared with sodium lactate alone or sodium lactate combined with sodium diacetate ([2]; 3% in turkey product): more effective
- growth of L. monocytogenes ([2]; 3% in turkey product): completely inhibited growth

Structure (SMILES): CC(=O)CCC(=O)O [levulinic acid, 4-oxopentanoic acid]
- proliferation of Listeria bacteria in treated meat samples [3]: significant decrease
- initial decontamination and residual activity against pathogenic bacteria [4]: significant initial decontamination and residual activity
- residual anti-pathogenic activity as compared to lactic acid and acetic acid [5]: equal or greater residual anti-pathogenic activity
- initial surface decontamination activity against pathogenic bacteria as compared to fixed concentrations of lactic acid or acetic acid at a fixed temperature [6]: significant initial surface decontamination activity
- decontamination of pathogens as compared to lactic acid and acetic acid [7]: equal or greater decontamination

Structure (SMILES): CC(=O)CCC(=O)O [levulinate]
- peak levels of growth of L. monocytogenes ([2]; 1% in turkey product, after 12 weeks of storage at 2° C.): greatly inhibited
- growth of L. monocytogenes compared to the control ([2]; 1% in turkey product, vacuum packaged, stored at 2° C., two trials averaged): delayed growth
